Experimental data as given in PubChem BioAssay AID1259407 (Chemical Carcinogenesis Research Information System (CCRIS), 2018).
Active and inactive are the calls of the source. How the calls were made is not given here.

Test system: CCRIS mutagenicity, Ames/micronucleus/aberration tests
Test: CCRIS mutagenicity studies
[1] = Test System: AMES SALMONELLA TYPHIMURIUM, Strain/Indicator: TA98, Metabolic Activation: NONE, Method: STANDARD PLATE
[2] = Test System: AMES SALMONELLA TYPHIMURIUM, Strain/Indicator: TA98, Metabolic Activation: RAT, LIVER, S-9, AROCLOR 1254, Method: STANDARD PLATE
[3] = Test System: AMES SALMONELLA TYPHIMURIUM, Strain/Indicator: TA100, Metabolic Activation: NONE, Method: STANDARD PLATE
[4] = Test System: AMES SALMONELLA TYPHIMURIUM, Strain/Indicator: TA100, Metabolic Activation: RAT, LIVER, S-9, AROCLOR 1254, Method: STANDARD PLATE
[5] = Test System: AMES SALMONELLA TYPHIMURIUM, Strain/Indicator: TA98, Metabolic Activation: NONE, Method: PREINCUBATION

## COP(=S)(OC)Oc1ccc(SC)c(C)c1
End Point: IN VITRO CHROMOSOMAL ABERRATIONS, Test System: HUMAN PERIPHERAL LYMPHOCYTES, Metabolic Activation: NONE
  mutagenic call: active; positive (structural changes)
End Point: In vitro chromosomal aberration, Test System: Chinese hamster ovary (CHO) cells, Metabolic Activation: None
  mutagenic call: inactive; negative
End Point: In vitro chromosomal aberration, Test System: Chinese hamster ovary (CHO) cells, Metabolic Activation: Rat, Liver, S-9
  mutagenic call: inactive; negative
Test System: UDS Rat hepatocytes, Strain/Indicator: Thymidine incorporation, Metabolic Activation: None, Method: Autoradiography
  mutagenic call: active; positive

## Nc1ncnc2nc[nH]c12
Test System: AMES SALMONELLA TYPHIMURIUM, Strain/Indicator: TA97, Metabolic Activation: NONE, Method: STANDARD PLATE
  mutagenic call: inactive; negative
Test System: AMES SALMONELLA TYPHIMURIUM, Strain/Indicator: TA97, Metabolic Activation: RAT, LIVER, S-9, AROCLOR 1254, Method: STANDARD PLATE
  mutagenic call: inactive; negative
[1]
  mutagenic call: inactive; negative
[2]
  mutagenic call: active; positive
[3]
  mutagenic call: inactive; negative
[4]
  mutagenic call: inactive; negative

## CCCC[C@@H](C)[C@@H](OC(=O)C[C@@H](CC(=O)O)C(=O)O)[C@H](C[C@@H](C)C[C@H](O)CCCC[C@@H](O)C[C@H](O)[C@H](C)N)OC(=O)C[C@@H](CC(=O)O)C(=O)O
Test System: AMES SALMONELLA TYPHIMURIUM, Strain/Indicator: TA97A, Metabolic Activation: NONE, Method: STANDARD PLATE
  mutagenic call: inactive; negative
Test System: AMES SALMONELLA TYPHIMURIUM, Strain/Indicator: TA97A, Metabolic Activation: RAT, LIVER, S-9, AROCLOR 1254, Method: STANDARD PLATE
  mutagenic call: inactive; negative
[1]
  mutagenic call: inactive; negative
Test System: AMES SALMONELLA TYPHIMURIUM, Strain/Indicator: TA98, Metabolic Activation: RAT LIVER S-9, Method: STANDARD PLATE
  mutagenic call: inactive; negative
[2]
  mutagenic call: inactive; negative
[3]
  mutagenic call: inactive; negative
Test System: AMES SALMONELLA TYPHIMURIUM, Strain/Indicator: TA100, Metabolic Activation: RAT LIVER S-9, Method: STANDARD PLATE
  mutagenic call: inactive; negative
[4]
  mutagenic call: inactive; negative
Test System: AMES SALMONELLA TYPHIMURIUM, Strain/Indicator: TA102, Metabolic Activation: NONE, Method: STANDARD PLATE
  mutagenic call: inactive; negative
Test System: AMES SALMONELLA TYPHIMURIUM, Strain/Indicator: TA102, Metabolic Activation: RAT LIVER S-9, Method: STANDARD PLATE
  mutagenic call: inactive; negative
Test System: AMES SALMONELLA TYPHIMURIUM, Strain/Indicator: TA102, Metabolic Activation: RAT, LIVER, S-9, AROCLOR 1254, Method: STANDARD PLATE
  mutagenic call: inactive; negative

## Cc1ccc([N+](=O)[O-])cc1N=O
[5]
  mutagenic call: active; positive
Test System: AMES SALMONELLA TYPHIMURIUM, Strain/Indicator: TA98, Metabolic Activation: NONE, Method: SUSPENSION/PLATE
  mutagenic call: inactive; negative
Test System: AMES SALMONELLA TYPHIMURIUM, Strain/Indicator: TA98, Metabolic Activation: RAT, LIVER, S-9, AROCLOR, Method: PREINCUBATION
  mutagenic call: active; positive
Test System: AMES SALMONELLA TYPHIMURIUM, Strain/Indicator: TA98, Metabolic Activation: RAT, LIVER, S-9, PHENOBARBITAL AND 5,6-BENZOFLAVONE, Method: SUSPENSION/PLATE
  mutagenic call: inactive; negative
Test System: AMES SALMONELLA TYPHIMURIUM, Strain/Indicator: TA100, Metabolic Activation: NONE, Method: SUSPENSION/PLATE
  mutagenic call: inactive; negative
Test System: AMES SALMONELLA TYPHIMURIUM, Strain/Indicator: TA100, Metabolic Activation: RAT, LIVER, S-9, PHENOBARBITAL AND 5,6-BENZOFLAVONE, Method: SUSPENSION/PLATE
  mutagenic call: inactive; negative

## CC(C)Nc1ccccc1
Test System: AMES SALMONELLA TYPHIMURIUM, Strain/Indicator: TA98, Metabolic Activation: HAMSTER, LIVER, S-9, AROCLOR 1254 (5 OR 30%), Method: PREINCUBATION
  mutagenic call: inactive; negative
[5]
  mutagenic call: inactive; negative
Test System: AMES SALMONELLA TYPHIMURIUM, Strain/Indicator: TA98, Metabolic Activation: RAT, LIVER, S-9, AROCLOR 1254 (10%), Method: PREINCUBATION
  mutagenic call: inactive; negative
Test System: AMES SALMONELLA TYPHIMURIUM, Strain/Indicator: TA100, Metabolic Activation: HAMSTER, LIVER, S-9, AROCLOR 1254 (10%), Method: PREINCUBATION
  mutagenic call: inactive; negative
Test System: AMES SALMONELLA TYPHIMURIUM, Strain/Indicator: TA100, Metabolic Activation: NONE, Method: PREINCUBATION
  mutagenic call: inactive; negative
Test System: AMES SALMONELLA TYPHIMURIUM, Strain/Indicator: TA100, Metabolic Activation: RAT, LIVER, S-9, AROCLOR 1254 (10%), Method: PREINCUBATION
  mutagenic call: inactive; negative
Test System: AMES SALMONELLA TYPHIMURIUM, Strain/Indicator: TA1535, Metabolic Activation: HAMSTER, LIVER, S-9, AROCLOR 1254 (10%), Method: PREINCUBATION
  mutagenic call: inactive; negative
Test System: AMES SALMONELLA TYPHIMURIUM, Strain/Indicator: TA1535, Metabolic Activation: NONE, Method: PREINCUBATION
  mutagenic call: inactive; negative
Test System: AMES SALMONELLA TYPHIMURIUM, Strain/Indicator: TA1535, Metabolic Activation: RAT, LIVER, S-9, AROCLOR 1254 (10%), Method: PREINCUBATION
  mutagenic call: inactive; negative
Test System: AMES SALMONELLA TYPHIMURIUM, Strain/Indicator: TA1537, Metabolic Activation: HAMSTER, LIVER, S-9, AROCLOR 1254 (10%), Method: PREINCUBATION
  mutagenic call: inactive; negative
Test System: AMES SALMONELLA TYPHIMURIUM, Strain/Indicator: TA1537, Metabolic Activation: NONE, Method: PREINCUBATION
  mutagenic call: inactive; negative
Test System: AMES SALMONELLA TYPHIMURIUM, Strain/Indicator: TA1537, Metabolic Activation: RAT, LIVER, S-9, AROCLOR 1254 (10%), Method: PREINCUBATION
  mutagenic call: inactive; negative

## [Cl][Hg].[Cl][Hg]
End Point: IN VIVO MICRONUCLEUS, Test System: BONE MARROW, Species: HAMSTER, Strain/Sex: SYRIAN/MALE, Route: INTRAPERITONEAL
  mutagenic call: inactive; negative

## O[C@@H]1[C@@H]2O[C@@H]2c2cc3c(ccc4ccccc43)cc2[C@H]1O
Test System: CHINESE HAMSTER V-79, Strain/Indicator: V-79/8-AZAGUANINE, Metabolic Activation: NONE, Method: STANDARD PLATE
  mutagenic call: active; positive
